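Cultured in 96-well plates, cells were exposed to test compound for 48 hours across five concentrations. Abbreviation: GI50, concentration required for 50% inhibition of growth.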 Activity calls are given as the source filed them. No stated cut-off is given here; in the data, active = GI50 up to about 1.1 µM and inactive = higher. Where a SMILES comes first, the peptide text is derived from it. [ ]: non-standard residue; d: D form. Phe(F5) = N[CH](Cc1c(F)c(F)c(F)c(F)c1F)C(=O)O
Columns and labels:
Assay in all cases: growth of human tumour cells (NCI), 48 h
SW-620 = tested on: SW-620
DU-145 = tested on: DU-145
SK-MEL-28 = tested on: SK-MEL-28
OVCAR-5 = tested on: OVCAR-5
SR = tested on: SR
M14 = tested on: M14
UACC-257 = tested on: UACC-257
NCI-H460 = tested on: NCI-H460
SK-OV-3 = tested on: SK-OV-3
HOP-62 = tested on: HOP-62
MDA-MB-435 = tested on: MDA-MB-435
KM12 = tested on: KM12
SF-295 = tested on: SF-295
RPMI-8226 = tested on: RPMI-8226
SN12C = tested on: SN12C
NCI-H226 = tested on: NCI-H226
UO-31 = tested on: UO-31
786-0 = tested on: 786-0
A498 = tested on: A498
NCI/ADR-RES = tested on: NCI/ADR-RES

SMILES | GI50 (SW-620) | GI50 (DU-145) | GI50 (SK-MEL-28) | GI50 (OVCAR-5) | GI50 (SR) | GI50 (M14) | GI50 (UACC-257) | GI50 (NCI-H460) | GI50 (SK-OV-3) | GI50 (HOP-62) | GI50 (MDA-MB-435) | GI50 (KM12) | GI50 (SF-295) | GI50 (RPMI-8226) | GI50 (SN12C) | GI50 (NCI-H226) | GI50 (UO-31) | GI50 (786-0) | GI50 (A498) | GI50 (NCI/ADR-RES)
CC(=O)NC1=C(C)C(=O)c2c(nc3n2CCC3OC(=O)c2ccccc2)C1=N (stereo not given) | 1.63 µM (inactive) | 1.97 µM (inactive) | 1.8 µM (inactive) | 2.98 µM (inactive) | 2.29 µM (inactive) | 1.01 µM (active) | 1.24 µM (inactive) | 1.99 µM (inactive) | 3.36 µM (inactive) | 3.09 µM (inactive) | 0.166 µM (active) | 4.55 µM (inactive) | 2.86 µM (inactive) | 1.31 µM (inactive) | 1.72 µM (inactive) | 4.24 µM (inactive) | 2.04 µM (inactive) | 1.93 µM (inactive) | 1.96 µM (inactive) | 2.93 µM (inactive)
O=C(CNc1ccc2c(=S)c3ccccc3[nH]c2c1)Nc1ccccc1-c1ccccc1NC(=O)CNc1ccc2c(=S)c3ccccc3[nH]c2c1 | 18.4 µM (inactive) | 18.3 µM (inactive) | 21.9 µM (inactive) | 28.7 µM (inactive) | 6.01 µM (inactive) | 16.3 µM (inactive) | 21 µM (inactive) | 17.1 µM (inactive) | 26.3 µM (inactive) | 24.3 µM (inactive) | 24 µM (inactive) | 18.5 µM (inactive) | 21.2 µM (inactive) | 8.75 µM (inactive) | 22.2 µM (inactive) | 26 µM (inactive) | 15.3 µM (inactive) | 13.1 µM (inactive) | 25.2 µM (inactive) | 31.2 µM (inactive)
O=C(OCC1OC(n2nc(Cn3nnc(-c4cccnc4)n3)n(-c3cccc4ccccc34)c2=S)C(OC(=O)c2ccccc2)C1OC(=O)c1ccccc1)c1ccccc1 (stereo not given) | > 100 µM (inactive) | > 100 µM (inactive) | > 100 µM (inactive) | 65.9 µM (inactive) | > 100 µM (inactive) | 35.3 µM (inactive) | > 100 µM (inactive) | > 100 µM (inactive) | > 100 µM (inactive) | > 100 µM (inactive) | > 100 µM (inactive) | > 100 µM (inactive) | > 100 µM (inactive) | > 100 µM (inactive) | > 100 µM (inactive) | > 100 µM (inactive) | > 100 µM (inactive) | > 100 µM (inactive) | > 100 µM (inactive) | > 100 µM (inactive)
COc1ccc(C2(CC(C)C)CCNC2)cc1OC (stereo not given) | > 100 µM (inactive) | > 100 µM (inactive) | > 100 µM (inactive) | > 100 µM (inactive) | 76.4 µM (inactive) | > 100 µM (inactive) | > 100 µM (inactive) | > 100 µM (inactive) | > 100 µM (inactive) | 82.2 µM (inactive) | > 100 µM (inactive) | > 100 µM (inactive) | > 100 µM (inactive) | 61.1 µM (inactive) | > 100 µM (inactive) | > 100 µM (inactive) | 50.9 µM (inactive) | > 100 µM (inactive) | > 100 µM (inactive) | > 100 µM (inactive)
CCC1(CC)C(=O)CC[C@@]2(C)C1=CC[C@H]1[C@@H]3CC[C@H](O)[C@@]3(C)CC[C@@H]12 | 19.1 µM (inactive) | 33.8 µM (inactive) | > 100 µM (inactive) | 53.3 µM (inactive) | 15.4 µM (inactive) | 43.4 µM (inactive) | 26.7 µM (inactive) | 16.3 µM (inactive) | 46.1 µM (inactive) | 19.1 µM (inactive) | 61 µM (inactive) | 32.1 µM (inactive) | 22.8 µM (inactive) | 12.1 µM (inactive) | 16.7 µM (inactive) | 29 µM (inactive) | 18.4 µM (inactive) | 15.5 µM (inactive) | 23.8 µM (inactive) | 43.2 µM (inactive)
CCN(CC)CCNc1c2ccccc2nc2cccc([N+](=O)[O-])c12 | 0.0116 µM (active) | 0.0031 µM (active) | 0.04 µM (active) | 0.0101 µM (active) | 0.00434 µM (active) | 0.00925 µM (active) | 0.0255 µM (active) | 0.00622 µM (active) | 0.0343 µM (active) | 0.00638 µM (active) | 0.00164 µM (active) | 0.0352 µM (active) | 0.00912 µM (active) | 0.00659 µM (active) | 0.0124 µM (active) | 0.0179 µM (active) | 0.0198 µM (active) | 0.0136 µM (active) | 0.00782 µM (active) | 0.0112 µM (active)
CCOc1ccc(/N=N/c2ccc3cc(/C(C)=N/NC(=O)/C(C#N)=C\c4ccc(N(CCC#N)CCC#N)cc4)c(=O)oc3c2)cc1 | > 10 µM (inactive) | > 10 µM (inactive) | > 10 µM (inactive) | > 10 µM (inactive) | > 10 µM (inactive) | > 10 µM (inactive) | > 10 µM (inactive) | > 10 µM (inactive) | > 10 µM (inactive) | > 10 µM (inactive) | > 10 µM (inactive) | > 10 µM (inactive) | > 10 µM (inactive) | > 10 µM (inactive) | > 10 µM (inactive) | > 10 µM (inactive) | > 10 µM (inactive) | > 10 µM (inactive) | > 10 µM (inactive) | > 10 µM (inactive)
O=C(Nc1ccccc1C(=O)NCc1ccccc1)/C(=C/c1ccccc1O)NC(=O)c1ccccc1 | > 100 µM (inactive) | > 100 µM (inactive) | > 100 µM (inactive) | > 100 µM (inactive) | > 100 µM (inactive) | > 100 µM (inactive) | > 100 µM (inactive) | > 100 µM (inactive) | 48.9 µM (inactive) | 27.1 µM (inactive) | 50.7 µM (inactive) | 4.67 µM (inactive) | 49.9 µM (inactive) | > 100 µM (inactive) | > 100 µM (inactive) | > 100 µM (inactive) | 65.6 µM (inactive) | 66.4 µM (inactive) | > 100 µM (inactive) | 88.5 µM (inactive)
COC(=O)C(CC(C)C)NC(=O)C(Cc1c[nH]cn1)NC(=O)CNC(=O)C(NC(=O)C(C)NC(=O)C(Cc1c[nH]c2ccccc12)NC(=O)C(CCC(=O)O)NC(=O)C(N)Cc1c(F)c(F)c(F)c(F)c1F)C(C)C (stereo not given) (H-[Phe(F5)]EWAVGHL-OMe; configuration not given here) | > 12.5 µM (inactive) | > 12.5 µM (inactive) | > 12.5 µM (inactive) | > 12.5 µM (inactive) | > 12.5 µM (inactive) | > 12.5 µM (inactive) | > 12.5 µM (inactive) | > 12.5 µM (inactive) | > 12.5 µM (inactive) | > 12.5 µM (inactive) | > 12.5 µM (inactive) | > 12.5 µM (inactive) | > 12.5 µM (inactive) | > 12.5 µM (inactive) | > 12.5 µM (inactive) | > 12.5 µM (inactive) | > 12.5 µM (inactive) | > 12.5 µM (inactive) | > 12.5 µM (inactive) | > 12.5 µM (inactive)
O=C1Nc2ccccc2/C1=N/NS(=O)(=O)c1ccc(C(=O)O)cc1 | > 100 µM (inactive) | > 100 µM (inactive) | > 100 µM (inactive) | > 100 µM (inactive) | > 100 µM (inactive) | > 100 µM (inactive) | > 100 µM (inactive) | > 100 µM (inactive) | > 100 µM (inactive) | > 100 µM (inactive) | > 100 µM (inactive) | > 100 µM (inactive) | > 100 µM (inactive) | > 100 µM (inactive) | > 100 µM (inactive) | > 100 µM (inactive) | > 100 µM (inactive) | > 100 µM (inactive) | > 100 µM (inactive) | > 100 µM (inactive)
N=C1OC(CN2CCN(c3ccccc3)CC2)CN1C(=O)Nc1ccccc1 (stereo not given) | > 100 µM (inactive) | > 100 µM (inactive) | > 100 µM (inactive) | > 100 µM (inactive) | 57.7 µM (inactive) | > 100 µM (inactive) | > 100 µM (inactive) | > 100 µM (inactive) | > 100 µM (inactive) | > 100 µM (inactive) | > 100 µM (inactive) | > 100 µM (inactive) | > 100 µM (inactive) | > 100 µM (inactive) | > 100 µM (inactive) | > 100 µM (inactive) | > 100 µM (inactive) | > 100 µM (inactive) | > 100 µM (inactive) | > 100 µM (inactive)
Cc1cn(CCCCCOC(=O)NC(CCCNC(=N)N)C(=O)O)c(=O)[nH]c1=O (stereo not given) | 38.7 µM (inactive) | 37.5 µM (inactive) | 76.4 µM (inactive) | > 100 µM (inactive) | 2.57 µM (inactive) | 55.6 µM (inactive) | > 100 µM (inactive) | 38.2 µM (inactive) | 48.9 µM (inactive) | > 100 µM (inactive) | 6.32 µM (inactive) | 19 µM (inactive) | 28.2 µM (inactive) | 11.7 µM (inactive) | 56.8 µM (inactive) | 30.3 µM (inactive) | > 100 µM (inactive) | 39.4 µM (inactive) | 24.9 µM (inactive) | 23.1 µM (inactive)
CN(CCn1cnc2c1c(=O)n(C)c(=O)n2C)C1CCCCC1 | > 100 µM (inactive) | > 100 µM (inactive) | > 100 µM (inactive) | > 100 µM (inactive) | > 100 µM (inactive) | > 100 µM (inactive) | > 100 µM (inactive) | > 100 µM (inactive) | > 100 µM (inactive) | > 100 µM (inactive) | > 100 µM (inactive) | > 100 µM (inactive) | > 100 µM (inactive) | > 100 µM (inactive) | > 100 µM (inactive) | > 100 µM (inactive) | > 100 µM (inactive) | > 100 µM (inactive) | > 100 µM (inactive) | > 100 µM (inactive)

Source: ChEMBL document CHEMBL1201862, “PubChem BioAssay data set” (2004)
